Patent US20150119352A1, “DINUCELOSIDE POLYPHOSPHATES FOR THE TREATMENT OF PAIN” (GlobalAcorn Ltd., priority 2012, published 2015)
“Also recorded” adds a separate entry of the source.

Columns and labels:
[1] = tested on: native P2X3 receptors, dorsal root ganglia (DRG) neurons; experiment: α,β-meATP-induced currents in cultured dorsal root ganglia neurons; type: cell-based, rat; conditions: 1 μM, DRG neurons
Protocol: (§1) Rat trigeminal (TG), nodose (NG) or dorsal root ganglion (DRG) neurons in culture were prepared as described previously (Sokolova et al., 2001; Simonetti et al., 2006). Neurons were plated on poly-L-lysine (0.2 mg/mL)-coated Petri dishes and cultured for 1 to 2 days under an atmosphere containing 5% CO2. Cells were used within 2 days of plating when they lacked processes. HEK293T cells were prepared as reported previously (Fabbretti et al., 2004; Sokolova et al., 2004) and transfected with rat full-length P2X3 cDNA subcloned into pIRES2-EGFP (Clontech, Mountain View, Calif., USA).
(§2) Trigeminal, nodose, DRG neurons or HEK cells were recorded in the whole-cell configuration while being continuously superfused (at 2 mL/min) with control solution containing (in mM): 152 NaCl, 5 KCl, 1 MgCl2, 2 CaCl2, 10 glucose, and 10 HEPES; pH was adjusted to 7.4 with NaOH and osmolarity was adjusted to 320 mOsM with glucose. […] Responses to selective P2X3 receptor agonist α,β-methylene-ATP (α,β-meATP; resistant to ectoATPase hydrolysis, Sigma-Aldrich) were measured using an EPC-9 amplifier and HEKA Patch Master software (HEKA Electronik, Germany). Cells were voltage-clamped at −70 mV. In most cells, series resistance was compensated by 80%. […]
(§3) The peak amplitudes of the responses were measured using HEKA Patch Master software. […]

[2] = target: T1, native P2X3 receptors, dorsal root ganglia (DRG) neurons (Rattus norvegicus, UniProt P49654); experiment: as above; type: cell-based; conditions: DRG neuron, read-out: inhibition (suppression) of the peak current
T1 construct: Modulation of Native P2X3 Receptors in Rat Cultured Sensory Neurons; endogenous in cells; host or cells: primary cultured rat trigeminal ganglion and dorsal root ganglion neurons
T1 sequence (P49654 1-397): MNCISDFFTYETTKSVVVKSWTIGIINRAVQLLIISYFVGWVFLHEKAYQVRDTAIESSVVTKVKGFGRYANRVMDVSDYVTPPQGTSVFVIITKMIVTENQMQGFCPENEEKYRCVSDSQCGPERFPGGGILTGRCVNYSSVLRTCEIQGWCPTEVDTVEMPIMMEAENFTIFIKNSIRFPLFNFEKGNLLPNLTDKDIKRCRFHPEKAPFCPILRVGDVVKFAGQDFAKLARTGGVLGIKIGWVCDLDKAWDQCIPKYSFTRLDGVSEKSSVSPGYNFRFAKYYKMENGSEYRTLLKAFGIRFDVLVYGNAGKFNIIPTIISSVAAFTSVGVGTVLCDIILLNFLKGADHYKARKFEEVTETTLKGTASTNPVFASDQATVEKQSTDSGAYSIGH
Protocol: as §1, §2, §3

[3] = target: T2, rat homomeric P2X4 receptors (Rattus norvegicus, UniProt P51577); experiment: Whole-cell patch clamp, rat homomeric P2X4 receptors; type: cell-based; conditions: 1 μM; ATP
T2 construct: expressed in transfected cells
T2 sequence (P51577 1-388): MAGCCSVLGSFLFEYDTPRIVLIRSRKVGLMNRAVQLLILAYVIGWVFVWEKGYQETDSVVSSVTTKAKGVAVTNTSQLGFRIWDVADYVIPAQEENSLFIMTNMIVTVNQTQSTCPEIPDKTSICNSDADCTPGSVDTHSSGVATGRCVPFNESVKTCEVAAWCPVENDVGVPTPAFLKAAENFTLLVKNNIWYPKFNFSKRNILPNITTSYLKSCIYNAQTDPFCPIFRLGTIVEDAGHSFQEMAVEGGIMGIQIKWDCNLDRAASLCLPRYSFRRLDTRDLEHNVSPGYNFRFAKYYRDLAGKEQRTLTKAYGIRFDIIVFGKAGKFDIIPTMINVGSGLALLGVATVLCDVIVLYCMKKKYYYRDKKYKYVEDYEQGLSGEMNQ
Protocol: FIG. 4. […] A. Example traces of responses induced by 10 μM ATP applied for 2 s every 2 min to HEK cells expressing rat homomeric P2X2 receptors in the presence and absence of 1 μM AppNHppA. B. Comparison of currents induced by the full agonist of P2X2 receptors, ATP, in the presence of 1 μM AppNHppA (right) and absence (left). C. The time course of the current in the presence and absence of 1 μM AppNHppA. D. Comparison of currents induced by the full agonist of rat homomeric P2X4 and P2X7 receptors, ATP, in the presence of 1 μM AppNHppA (right) and absence (left). Experiments were performed as in FIG. 2.
as §2

Nc1ncnc2c1ncn2[C@@H]1O[C@H](COP(=O)(O)OP(=O)(O)NP(=O)(O)OP(=O)(O)OC[C@H]2O[C@@H](n3cnc4c(N)ncnc43)C(O)C2O)C(O)C1O (stereo in doubt) [AppNHppA]
inhibition of sustained residual component [1]: 18±6% | inhibition at 1 µM [2]: 79.2 ± 5.6% | effect on P2X4 receptor-mediated currents [3]: not observed to produce any effects; also recorded: non-inhibitory effect
